Source: PubChem BioAssay AID1963966 (Molecular Pharmacology Branch, DTP, NCI, 2024)

Test system: 935938-334-R-J1-PDC spheroids with HUVEC/MSC, viability
Assay: Anticancer human tumor 935938-334-R-J1-PDC patient-derived small intestine adenocarcinoma cell line growth inhibition [PI3K]
Conditions: for IC50: curve of first compound; for viability, T/C: stronger effect = lower value; active means viability on the fitted dose curve at most 10% of control; inactive means the rest
Summary of the method: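 Spheroid viability read-out. Co-cultures contained the tumor line plus HUVEC and human MSCs. Each agent was paired with a PI3K inhibitor (inavolisib, alpelisib, duvelisib, copanlisib) across half-log dilutions starting at clinical Cmax, or at 10 microM when Cmax was unknown.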

[1] = second compound 0.00316 µM, first compound 0.0316 µM
[2] = second compound 0.00316 µM, first compound 0.1 µM
[3] = second compound 0.00316 µM, first compound 0.316 µM
[4] = second compound 0.00316 µM, first compound 1 µM
[5] = second compound 0.00316 µM, first compound 3.16 µM
[6] = second compound 0.00316 µM, first compound 10 µM
[7] = second compound 0.01 µM, first compound 0.0316 µM
[8] = second compound 0.01 µM, first compound 0.1 µM
[9] = second compound 0.01 µM, first compound 0.316 µM
[10] = second compound 0.01 µM, first compound 1 µM
[11] = second compound 0.01 µM, first compound 3.16 µM
[12] = second compound 0.01 µM, first compound 10 µM
[13] = second compound 0.0316 µM, first compound 0.0316 µM
[14] = second compound 0.0316 µM, first compound 0.1 µM
[15] = second compound 0.0316 µM, first compound 0.316 µM
[16] = second compound 0.0316 µM, first compound 1 µM
[17] = second compound 0.0316 µM, first compound 3.16 µM
[18] = second compound 0.0316 µM, first compound 10 µM
[19] = second compound 0.1 µM, first compound 0.0316 µM
[20] = second compound 0.1 µM, first compound 0.1 µM
[21] = second compound 0.1 µM, first compound 0.316 µM
[22] = second compound 0.1 µM, first compound 1 µM
[23] = second compound 0.1 µM, first compound 3.16 µM
[24] = second compound 0.1 µM, first compound 10 µM
[25] = second compound 0.316 µM, first compound 0.0316 µM
[26] = second compound 0.316 µM, first compound 0.1 µM
[27] = second compound 0.316 µM, first compound 0.316 µM
[28] = second compound 0.316 µM, first compound 1 µM
[29] = second compound 0.316 µM, first compound 3.16 µM
[30] = second compound 0.316 µM, first compound 10 µM
[31] = second compound 1 µM, first compound 0.0316 µM
[32] = second compound 1 µM, first compound 0.1 µM
[33] = second compound 1 µM, first compound 0.316 µM
[34] = second compound 1 µM, first compound 1 µM
[35] = second compound 1 µM, first compound 3.16 µM
[36] = second compound 1 µM, first compound 10 µM
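Further: compound exposure lasted seven days before viability was read.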
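Wherever viability, T/C is given: percent of vehicle DMSO treated spheroid viability so 100% = untreated.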

CC1(C)CCC(CN2CCN(c3ccc(C(=O)NS(=O)(=O)c4ccc(NCC5CCOCC5)c([N+](=O)[O-])c4)c(Oc4cnc5[nH]ccc5c4)c3)CC2)=C(c2ccc(Cl)cc2)C1 + COc1c(OCCCN2CCOCC2)ccc2c3n(c(=NC(=O)c4cnc(N)nc4)nc12)CCN3
< 0.0316 µM: IC50 (second compound 0.316 µM) | IC50 (second compound 1 µM)
> 10 µM: IC50 (second compound 0.00316 µM) | IC50 (second compound 0.01 µM) | IC50 (second compound 0.0316 µM)
10 µM: IC50 (second compound 0.1 µM)
inactive: viability, T/C [1] 98.6% | viability, T/C [2] 99.3% | viability, T/C [3] 92.7% | viability, T/C [4] 110% | viability, T/C [5] 84.8% | viability, T/C [6] 93.1% | viability, T/C [7] 108% | viability, T/C [8] 85.6% | viability, T/C [9] 83.7% | viability, T/C [10] 66.8% | viability, T/C [11] 82.4% | viability, T/C [12] 84.8% | viability, T/C [13] 67.7% | viability, T/C [14] 68.6% | viability, T/C [15] 71.1% | viability, T/C [16] 68.5% | viability, T/C [17] 69.5% | viability, T/C [18] 74% | viability, T/C [19] 66.5% | viability, T/C [20] 44.7% | viability, T/C [21] 56.8% | viability, T/C [22] 52.2% | viability, T/C [23] 52.5% | viability, T/C [24] 47.3% | viability, T/C [25] 27.1% | viability, T/C [26] 36.2% | viability, T/C [27] 30% | viability, T/C [28] 33.2% | viability, T/C [29] 33.6% | viability, T/C [30] 40.1% | viability, T/C [31] 34.6% | viability, T/C [32] 39.5% | viability, T/C [33] 38.9% | viability, T/C [34] 29.3% | viability, T/C [35] 34.9% | viability, T/C [36] 32.6%

CCCS(=O)(=O)Nc1ccc(F)c(C(=O)c2c[nH]c3ncc(-c4ccc(Cl)cc4)cc23)c1F + COc1c(OCCCN2CCOCC2)ccc2c3n(c(=NC(=O)c4cnc(N)nc4)nc12)CCN3
7.41 µM: IC50 (second compound 0.01 µM)
inactive: viability, T/C [1] 97.3% | viability, T/C [2] 104% | viability, T/C [3] 113% | viability, T/C [4] 132% | viability, T/C [5] 102% | viability, T/C [6] 31.2% | viability, T/C [7] 123% | viability, T/C [8] 107% | viability, T/C [9] 96.1% | viability, T/C [10] 120% | viability, T/C [11] 115% | viability, T/C [12] 28.1% | viability, T/C [13] 95% | viability, T/C [14] 81.4% | viability, T/C [15] 85% | viability, T/C [16] 108% | viability, T/C [17] 87.9% | viability, T/C [18] 29.5% | viability, T/C [19] 61.8% | viability, T/C [20] 65.5% | viability, T/C [21] 65.3% | viability, T/C [22] 89.1% | viability, T/C [23] 70.6% | viability, T/C [24] 26.7% | viability, T/C [25] 39% | viability, T/C [26] 45.2% | viability, T/C [27] 51.6% | viability, T/C [28] 49.3% | viability, T/C [29] 49.5% | viability, T/C [30] 31.9% | viability, T/C [31] 39.2% | viability, T/C [32] 40.9% | viability, T/C [33] 39.3% | viability, T/C [34] 50% | viability, T/C [35] 50.3% | viability, T/C [36] 23.9%
< 0.0316 µM: IC50 (second compound 0.316 µM) | IC50 (second compound 1 µM)
7.39 µM: IC50 (second compound 0.00316 µM)
6.73 µM: IC50 (second compound 0.0316 µM)
5.38 µM: IC50 (second compound 0.1 µM)

CNC(=O)c1ccc(N2C(=S)N(c3ccc(C#N)c(C(F)(F)F)c3)C(=O)C2(C)C)cc1F + COc1c(OCCCN2CCOCC2)ccc2c3n(c(=NC(=O)c4cnc(N)nc4)nc12)CCN3
> 10 µM: IC50 (second compound 0.00316 µM) | IC50 (second compound 0.01 µM) | IC50 (second compound 0.0316 µM)
inactive: viability, T/C [1] 89.8% | viability, T/C [2] 76.3% | viability, T/C [3] 74.8% | viability, T/C [4] 66.8% | viability, T/C [5] 103% | viability, T/C [6] 93.4% | viability, T/C [7] 87.6% | viability, T/C [8] 96.8% | viability, T/C [9] 102% | viability, T/C [10] 85.8% | viability, T/C [11] 104% | viability, T/C [12] 92.7% | viability, T/C [13] 84.5% | viability, T/C [14] 85.3% | viability, T/C [15] 82.1% | viability, T/C [16] 81% | viability, T/C [17] 76.6% | viability, T/C [18] 66.6% | viability, T/C [19] 62.9% | viability, T/C [20] 42.6% | viability, T/C [21] 49.1% | viability, T/C [22] 44.5% | viability, T/C [23] 42.9% | viability, T/C [24] 40.2% | viability, T/C [25] 43.3% | viability, T/C [26] 29.4% | viability, T/C [27] 31.3% | viability, T/C [28] 32.4% | viability, T/C [29] 36.7% | viability, T/C [30] 24.4% | viability, T/C [31] 34.9% | viability, T/C [32] 30.6% | viability, T/C [33] 38.3% | viability, T/C [34] 34.2% | viability, T/C [35] 29.3% | viability, T/C [36] 24.8%
0.0694 µM: IC50 (second compound 0.1 µM)
< 0.0316 µM: IC50 (second compound 0.316 µM) | IC50 (second compound 1 µM)
